In patent US9708500B2, “Liquid composition, pigment dispersion liquid, and aqueous ink composition for ink jet recording” (Seiko Epson Corporation, priority 2015, dated 2017):

Assay: distribution coefficient of water-octanol (log P), OECD Test Guideline 107
Settings: for log P (distribution coefficient of water-octanol): OECD Test Guideline 107
Excerpt: Here, the distribution coefficient of water-octanol, that is, a log P value represents a value which is defined by OECD Test Guideline 107. As the log P value is high, hydrophobicity is high, and as the log P value is low, hydrophilicity is high.

Structure (SMILES) | log P (distribution coefficient of water-octanol) | logP (octanol/water)
CCCC(=O)OCC(O)CO (stereo not drawn) [butyric acid 2,3-dihydroxypropyl] | −0.21 | –
CCCC(=O)OCC(COC(=O)CCC)OC(=O)CCC [glycerin tributyrate] | – | 2.95
CCCCCC(=O)OCC(O)CO (stereo not drawn) [hexanoic acid 2,3-dihydroxypropyl] | 0.85 | –
